Test results as given in the CheMixHub viscosity set.

Experiment: xn = mol fraction of the nth substance listed

NCCN + OCCO
viscosity [mPa·s], 101 kPa
Conditions	x1 = 0.0872	x1 = 0.17	x1 = 0.2572	x1 = 0.3496	x1 = 0.3568	x1 = 0.4448	x1 = 0.547	x1 = 0.6556	x1 = 0.7623	x1 = 0.8792
293.15 K	27.84	34.57	40.29	40.83	–	34.13	21.71	11.54	5.764	2.87
298.15 K	22.44	27.12	31.13	31.21	–	26.03	16.95	9.305	4.829	2.474
303.15 K	18.11	21.75	24.48	24.17	22.85	20.15	–	7.547	4.093	2.165
308.15 K	14.79	17.62	19.51	19.04	–	15.91	10.76	–	3.514	1.914
313.15 K	12.24	14.39	15.71	15.26	–	12.72	8.758	5.248	3.031	1.715
318.15 K	10.22	11.87	12.84	12.3	–	10.35	7.228	4.445	2.644	1.537
323.15 K	8.597	9.828	10.57	10.09	–	8.503	6.053	3.8	2.317	1.383

Nc1ccccc1 + c1ccccc1
Conditions	viscosity [mPa·s]
298.15 K, 101 kPa, x1 = 0.1039	0.71
298.15 K, 101 kPa, x1 = 0.2282	0.83
298.15 K, 101 kPa, x1 = 0.3729	1.1
298.15 K, 101 kPa, x1 = 0.4341	1.211
298.15 K, 101 kPa, x1 = 0.5562	1.483
298.15 K, 101 kPa, x1 = 0.6562	1.803
298.15 K, 101 kPa, x1 = 0.7656	2.217
298.15 K, 101 kPa, x1 = 0.8661	2.767
298.15 K, 101 kPa, x1 = 0.9088	3.029
298.15 K, 101 kPa, x2 = 0.01	3.64
298.15 K, 101 kPa, x2 = 0.026	3.555
298.15 K, 101 kPa, x2 = 0.12	2.895
298.15 K, 101 kPa, x2 = 0.205	2.461
298.15 K, 101 kPa, x2 = 0.304	2.022
298.15 K, 101 kPa, x2 = 0.39	1.67
298.15 K, 101 kPa, x2 = 0.468	1.448
298.15 K, 101 kPa, x2 = 0.52	1.307
298.15 K, 101 kPa, x2 = 0.626	1.1
298.15 K, 101 kPa, x2 = 0.662	1.056
298.15 K, 101 kPa, x2 = 0.794	0.861
298.15 K, 101 kPa, x2 = 0.896	0.714
298.15 K, 101.33 kPa, x1 = 0.2	0.78
298.15 K, 101.33 kPa, x1 = 0.5	1.277
298.15 K, 101.33 kPa, x2 = 0.25	2.458
298.15 K, 101.33 kPa, x2 = 0.4	1.764
298.15 K, 101.33 kPa, x2 = 0.5	1.427
303.15 K, 101 kPa, x1 = 0.1039	0.657
303.15 K, 101 kPa, x1 = 0.2282	0.781
303.15 K, 101 kPa, x1 = 0.3729	0.965
303.15 K, 101 kPa, x1 = 0.4341	1.093
303.15 K, 101 kPa, x1 = 0.5562	1.371
303.15 K, 101 kPa, x1 = 0.6562	1.648
303.15 K, 101 kPa, x1 = 0.7656	1.991
303.15 K, 101 kPa, x1 = 0.8661	2.495
303.15 K, 101 kPa, x1 = 0.9088	2.745
308.15 K, 101 kPa, x1 = 0.1019	0.5981
308.15 K, 101 kPa, x1 = 0.1039	0.589
308.15 K, 101 kPa, x1 = 0.1492	0.6532
308.15 K, 101 kPa, x1 = 0.2282	0.736
308.15 K, 101 kPa, x1 = 0.2326	0.728
308.15 K, 101 kPa, x1 = 0.267	0.7545
308.15 K, 101 kPa, x1 = 0.3462	0.8563
308.15 K, 101 kPa, x1 = 0.3729	0.91
308.15 K, 101 kPa, x1 = 0.4341	1.012
308.15 K, 101 kPa, x1 = 0.4911	1.115
308.15 K, 101 kPa, x1 = 0.5562	1.224
308.15 K, 101 kPa, x1 = 0.6312	1.492
308.15 K, 101 kPa, x1 = 0.6562	1.476
308.15 K, 101 kPa, x1 = 0.68	1.59
308.15 K, 101 kPa, x1 = 0.7615	1.835
308.15 K, 101 kPa, x1 = 0.7656	1.79
308.15 K, 101 kPa, x1 = 0.8499	2.128
308.15 K, 101 kPa, x1 = 0.8661	2.179
308.15 K, 101 kPa, x1 = 0.9088	2.443
313.15 K, 101 kPa, x1 = 0.1039	0.562
313.15 K, 101 kPa, x1 = 0.2282	0.689
313.15 K, 101 kPa, x1 = 0.3729	0.842
313.15 K, 101 kPa, x1 = 0.4341	0.928
313.15 K, 101 kPa, x1 = 0.5562	1.124
313.15 K, 101 kPa, x1 = 0.6562	1.337
313.15 K, 101 kPa, x1 = 0.7656	1.587
313.15 K, 101 kPa, x1 = 0.8661	1.93
313.15 K, 101 kPa, x1 = 0.9088	2.103
323.15 K, 101.33 kPa, x1 = 0.2	0.541
323.15 K, 101.33 kPa, x1 = 0.5	0.792

Nc1ccccc1 + CC(C)=O
298.15 K, 101 kPa
Conditions	viscosity [mPa·s]
x1 = 0.0833	0.3644
x1 = 0.1692	0.4238
x1 = 0.2591	0.5074
x1 = 0.3523	0.6194
x1 = 0.4492	0.7717
x1 = 0.5502	0.9752
x1 = 0.6556	1.252
x1 = 0.7653	1.679
x1 = 0.8805	2.259

CC(C)(C)O + CCC(C)=O
viscosity [mPa·s]
Conditions	298.15 K	303.15 K	308.15 K	313.15 K	318.15 K
101 kPa, x1 = 0.0925	0.3917	0.3748	0.3599	–	–
101 kPa, x1 = 0.1893	0.4117	0.3946	0.3737	–	–
101 kPa, x1 = 0.2885	0.4407	0.4203	0.3964	–	–
101 kPa, x1 = 0.3835	0.4875	0.452	0.422	–	–
101 kPa, x1 = 0.4877	0.5818	0.5397	0.4915	–	–
101 kPa, x1 = 0.5862	0.7295	0.6627	0.602	–	–
101 kPa, x1 = 0.6907	0.9865	0.8797	0.7882	–	–
101 kPa, x1 = 0.7895	1.424	1.237	1.085	–	–
101 kPa, x1 = 0.8935	2.253	1.879	1.588	–	–
101.3 kPa, x1 = 0.0985	0.423	0.401	0.38	0.361	0.343
101.3 kPa, x1 = 0.1968	0.464	0.438	0.413	0.391	0.37
101.3 kPa, x1 = 0.2962	0.52	0.487	0.457	0.429	0.405
101.3 kPa, x1 = 0.3941	0.595	0.553	0.514	0.48	0.449
101.3 kPa, x1 = 0.4949	0.705	0.647	0.596	0.551	0.511
101.3 kPa, x1 = 0.5928	0.859	0.779	0.708	0.647	0.593
101.3 kPa, x1 = 0.695	1.116	0.99	0.884	0.793	0.716
101.3 kPa, x1 = 0.8003	1.577	1.357	1.178	1.031	0.909
101.3 kPa, x1 = 0.9037	2.474	2.029	1.687	1.421	1.212

COCCOCCOCCOC + CCCO
viscosity [mPa·s]
Conditions	298.15 K	308.15 K
101 kPa, x1 = 0.0386	1.777	1.406
101 kPa, x1 = 0.0615	1.714	1.363
101 kPa, x1 = 0.076	1.697	1.34
101 kPa, x1 = 0.1064	1.636	1.318
101 kPa, x1 = 0.1595	1.584	1.28
101 kPa, x1 = 0.2157	1.577	1.288
101 kPa, x1 = 0.2499	1.572	1.274
101 kPa, x1 = 0.2631	1.57	1.275
101 kPa, x1 = 0.3355	1.594	1.288
101 kPa, x1 = 0.422	1.607	1.315
101 kPa, x1 = 0.4701	1.635	1.335
101 kPa, x1 = 0.5148	1.654	1.363
101 kPa, x1 = 0.5848	1.693	1.385
101 kPa, x1 = 0.6662	1.743	1.442
101 kPa, x1 = 0.7126	1.772	1.456
101 kPa, x1 = 0.7778	1.826	1.483
101 kPa, x1 = 0.8098	1.853	1.508
101 kPa, x1 = 0.8789	1.89	1.536
101 kPa, x1 = 0.9504	1.942	1.58
101 kPa, x1 = 0.9719	1.956	1.592
101.33 kPa, x1 = 0.0081	1.918	–
101.33 kPa, x1 = 0.0165	1.884	–
101.33 kPa, x1 = 0.0245	1.856	–
101.33 kPa, x1 = 0.0336	1.824	–
101.33 kPa, x1 = 0.048	1.781	–
101.33 kPa, x1 = 0.0692	1.725	–
101.33 kPa, x1 = 0.0946	1.67	–
101.33 kPa, x1 = 0.1327	1.614	–
101.33 kPa, x1 = 0.1747	1.573	–
101.33 kPa, x1 = 0.2259	1.549	–
101.33 kPa, x1 = 0.2757	1.544	–
101.33 kPa, x1 = 0.3226	1.548	–
101.33 kPa, x1 = 0.3691	1.563	–
101.33 kPa, x1 = 0.4157	1.578	–
101.33 kPa, x1 = 0.4606	1.598	–
101.33 kPa, x1 = 0.5153	1.625	–
101.33 kPa, x1 = 0.5714	1.653	–
101.33 kPa, x1 = 0.6283	1.684	–
101.33 kPa, x1 = 0.6732	1.713	–
101.33 kPa, x1 = 0.7227	1.743	–
101.33 kPa, x1 = 0.7726	1.778	–
101.33 kPa, x1 = 0.8162	1.812	–
101.33 kPa, x1 = 0.8625	1.848	–
101.33 kPa, x1 = 0.9112	1.888	–
101.33 kPa, x1 = 0.9347	1.904	–
101.33 kPa, x1 = 0.9568	1.919	–
101.33 kPa, x1 = 0.9775	1.935	–

Oc1ccc2ccccc2c1 + CCO
viscosity [mPa·s], 101 kPa
Conditions	x1 = 0.03	x1 = 0.06	x1 = 0.09	x1 = 0.12	x1 = 0.15
293.15 K	1.428	1.684	1.969	2.28	2.641
303.15 K	1.162	1.351	1.588	1.836	2.093
313.15 K	0.975	1.125	1.305	1.487	1.669
323.15 K	0.801	0.92	1.063	1.217	1.374

CCNCC + CCCCCCO
viscosity [mPa·s], 100 kPa
Conditions	x1 = 0.0806	x1 = 0.1594	x1 = 0.2398	x1 = 0.3506	x1 = 0.4394	x1 = 0.559	x1 = 0.6502	x1 = 0.7392	x1 = 0.8506	x1 = 0.9401
293.15 K	4.73	4.11	3.54	2.83	2.32	1.71	1.32	0.98	0.65	0.43
303.15 K	3.45	3.02	2.59	2.08	1.7	1.27	1	0.75	0.52	0.37
313.15 K	2.58	2.24	1.92	1.53	1.25	0.93	0.73	0.55	0.398	0.31
323.15 K	1.97	1.71	1.46	1.16	0.95	0.71	0.56	0.44	0.33	0.27
